Molecules are shown by their SMILES.

Assay [1] has as its target T1, BCLXL (Homo sapiens, UniProt Q07817, V10N/V9A). Briefly: Fluorescence polarisation assay (PUMA-based probe displacement). Note: 20 nM protein, 10 nM fluorescent probe. The format is binding. A general note: Polarisation of emitted light reports the rotation of a fluorescent probe.
Assay [2] has as its target T1, BCLXL. Briefly: AlphaLISA assay (BIM peptide displacement). The format is binding. The conditions noted are these: 20 pM protein, 1 nM peptide. An outline of the steps:
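Competitive displacement of fluorescein-labelled BIM peptide (1 nM) from biotinylated GST-BCL-XL(2-209) (20 pM) in 10 mM HEPES, 150 mM NaCl, 0.05% Tween 20, pH 7.4, 4% DMSO; 11-point dilutions. Overnight at 23° C with acceptor beads, then donor beads 2 h; Alpha signal at 615 nm.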
Background: Alpha assays give light when donor and acceptor beads are brought close together.

In a further assay the target is T2, Bcl-xL protein (Homo sapiens, UniProt Q07817, N197C).
T2 construct: (2-197)[N197C]; His-His (two His8 stretches joined by a Gly/Ala/Ser/Thr linker)
Kind of assay: Fluorescence quenching assay (PUMA peptide displacement). The settings on record: 1 nM protein, 400 nM peptide, 2 hours at 23° C.; KI determined from IC50. The format is binding. An outline of the steps: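 Displacement of a TQ5WS-quencher-labelled PUMA peptide (400 nM) from Cy5-labelled His-tagged Bcl-xL 2-197 N197C (1 nM) raises fluorescence. An 11-point compound dilution was incubated 2 h at 23 °C in HEPES 10 mM, NaCl 150 mM, 0.05% Tween 20, pH 7.4, 5% DMSO. Fluorescence was read at Ex 620/Em 680 nm, and KI was derived from IC50.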

The subject of a further assay is H146 cells. Kind of assay: H146 cell viability, MTT assay. It counts as cell-based. The conditions noted are these: Homo sapiens, NCI-H146, 48 h, 48 h exposure. An outline of the steps: (§1)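 Cells grown in RPMI 1640 with 10% heat-inactivated FBS at 37° C, 5% CO2, exposed 48 h to nine 3.16-fold serial compound dilutions in triplicate. MTT added for 4 h, SDS/HCl solubilisation overnight, absorbance at 540 nm; IC50 by four-parameter fit.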
For orientation: Tetrazolium assays rely on reduction of a dye to a coloured formazan, in cell work by metabolically active cells.

A further assay has as its system MOLT-4 cells. Briefly: MOLT-4 cell viability, MTT assay. The settings on record: Homo sapiens, MOLT-4, 48 h, 48 h exposure. The format is cell-based. An outline of the steps: as §1

T2 sequence (Q07817 2-197 N197C): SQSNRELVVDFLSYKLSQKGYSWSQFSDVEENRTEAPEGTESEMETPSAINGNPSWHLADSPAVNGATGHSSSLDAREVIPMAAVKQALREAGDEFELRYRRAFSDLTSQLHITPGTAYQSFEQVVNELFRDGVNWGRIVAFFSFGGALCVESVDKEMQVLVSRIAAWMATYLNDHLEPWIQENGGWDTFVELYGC
T1 sequence (Q07817 with tags, fused parts or gaps V9A/V10N): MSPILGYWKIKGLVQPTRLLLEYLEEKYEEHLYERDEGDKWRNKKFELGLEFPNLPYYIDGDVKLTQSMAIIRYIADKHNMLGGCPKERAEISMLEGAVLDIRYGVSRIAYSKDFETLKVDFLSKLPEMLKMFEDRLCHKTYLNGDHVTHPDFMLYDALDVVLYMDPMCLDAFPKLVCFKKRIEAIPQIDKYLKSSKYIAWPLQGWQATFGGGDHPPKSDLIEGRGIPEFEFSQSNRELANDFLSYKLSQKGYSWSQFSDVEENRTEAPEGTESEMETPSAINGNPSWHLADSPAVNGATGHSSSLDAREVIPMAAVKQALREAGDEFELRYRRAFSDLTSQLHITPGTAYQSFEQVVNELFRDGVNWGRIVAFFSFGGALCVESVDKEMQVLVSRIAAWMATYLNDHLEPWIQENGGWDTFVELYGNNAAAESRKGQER

Turning to `CNCC#Cc1ccc(OCCCc2sc(N(CCCC(O)C[N+](C)(C)CCCS(=O)(=O)[O-])c3cc(C)c(Nc4nc5ccccc5s4)nn3)nc2C(=O)O)c(F)c1` (stereo not shown) [Example 146, 3-[[5-[[6-(1,3-Benzothiazol-2-ylamino)-5-methyl-pyridazin-3-yl]-[4-carboxy-5-[3-[2-fluoro-4-[3-(methylamino)prop-1-ynyl]phenoxy]propyl]thiazol-2-yl]amino]-2-hydroxy-pentyl]-dimethyl-ammonio]propane-1-sulfonate], the inhibitory constant (Ki) was under 1 nM at BCLXL [1] and 1.2 pM at Bcl-xL protein. The IC50 came to 0.022 nM at BCLXL [2], 971 nM with H146 cells and 668 nM in the assay on MOLT-4 cells.
In the case of `CNCC(O)CCCN(c1cc(C)c(Nc2nc3ccccc3s2)nn1)c1nc(C(=O)O)c(CCCOc2ccc(C#CCN(C)C)cc2F)s1` (stereo not shown) [Example 150, 2-[[6-(1,3-Benzothiazol-2-ylamino)-5-methyl-pyridazin-3-yl]-[4-hydroxy-5-(methylamino)pentyl]amino]-5-[3-[4-[3-(dimethylamino)prop-1-ynyl]-2-fluoro-phenoxy]propyl]thiazole-4-carboxylic acid], the values for the Ki at BCLXL [1] and at Bcl-xL protein were under 1 nM and 1.7 pM, respectively. Also, the figures for the half-maximal inhibitory concentration (IC50) on BCLXL [2], with H146 cells and with MOLT-4 cells were 0.013 nM, 16.8 nM and 136 nM, respectively.
`C/C(=C\c1sc(N(C)c2cc(C)c(Nc3nc4ccccc4s3)nn2)nc1C(=O)O)COc1ccc(C#CCN(C)C)cc1F` [Example 163, 2-({6-[(1,3-Benzothiazol-2-yl)amino]-5-methylpyridazin-3-yl}(methyl)amino)-5-[(1E)-3-{4-[3-(dimethylamino)prop-1-yn-1-yl]-2-fluorophenoxy}-2-methylprop-1-en-1-yl]-1,3-thiazole-4-carboxylic acid]: the inhibition constant Ki at BCLXL [1] is under 1 nM; at Bcl-xL protein, 20 pM. For the same compound, the values for the IC50 at BCLXL [2], in the assay on H146 cells and with MOLT-4 cells were 0.18 nM, 1040 nM and 96.2 nM, respectively.
On to `Cc1cc(N(C)c2nc(C(=O)O)c(CC(O)COc3ccc(C#CCN(C)C)cc3F)s2)nnc1Nc1nc2ccccc2s1` (stereo not shown) [Example 164, 2-({6-[(1,3-benzothiazol-2-yl)amino]-5-methylpyridazin-3-yl}(methyl)amino)-5-(3-{4-[3-(dimethylamino)prop-1-yn-1-yl]-2-fluorophenoxy}-2-hydroxypropyl)-1,3-thiazole-4-carboxylic acid], for which the inhibitory constant (Ki) at BCLXL [1] was under 1 nM; at Bcl-xL protein, 1.9 pM. For the same compound, the IC50 on BCLXL [2] came out at 0.0071 nM; in the assay on H146 cells, 34.6 nM; in the assay on MOLT-4 cells it was 12.9 nM.
For `Cc1cc(N(CCCCCN(C)C2CCNCC2)c2nc(C(=O)O)c(CCCOc3ccc(C#CCN(C)C)cc3F)s2)nnc1Nc1nc2ccccc2s1` [Example 165, 2-[[6-(1,3-Benzothiazol-2-ylamino)-5-methyl-pyridazin-3-yl]-[5-[methyl(4-piperidyl)amino]pentyl]amino]-5-[3-[4-[3-(dimethylamino)prop-1-ynyl]-2-fluoro-phenoxy]propyl]thiazole-4-carboxylic acid], the inhibition constant (Ki) on BCLXL [1] is under 1 nM; on Bcl-xL protein, 5.9 pM. The IC50 turned out to be 0.019 nM on BCLXL [2], 211 nM in the assay on H146 cells and 430 nM in the assay on MOLT-4 cells.
For `Cc1cc(N(CCCCCNCCN2CCOCC2)c2nc(C(=O)O)c(CCCOc3ccc(C#CCN(C)C)cc3F)s2)nnc1Nc1nc2ccccc2s1` [Example 166, 2-[[6-(1,3-Benzothiazol-2-ylamino)-5-methyl-pyridazin-3-yl]-[5-(2-morpholinoethylamino)pentyl]amino]-5-[3-[4-[3-(dimethylamino)prop-1-ynyl]-2-fluoro-phenoxy]propyl]thiazole-4-carboxylic acid], the inhibition constant (Ki) is under 1 nM at BCLXL [1] and 2.6 pM at Bcl-xL protein. For the same compound, the half-maximal inhibitory concentration (IC50) on BCLXL [2] is 0.0092 nM; in the assay on H146 cells, 142 nM; with MOLT-4 cells, 172 nM.
Consider `Cc1cc(N(CCCCCNCCN2CCN(C)CC2)c2nc(C(=O)O)c(CCCOc3ccc(C#CCN(C)C)cc3F)s2)nnc1Nc1nc2ccccc2s1` [Example 167, 2-[[6-(1,3-Benzothiazol-2-ylamino)-5-methyl-pyridazin-3-yl]-[5-[2-(4-methylpiperazin-1-yl)ethylamino]pentyl]amino]-5-[3-[4-[3-(dimethylamino)prop-1-ynyl]-2-fluoro-phenoxy]propyl]thiazole-4-carboxylic acid], for which the Ki is under 1 nM at BCLXL [1] and 2.9 pM on Bcl-xL protein. The IC50 on BCLXL [2] turned out to be 0.013 nM; with H146 cells, 432 nM; with MOLT-4 cells, 400 nM.
Taken in the same sequence, the figures for `CNCCN(C)CC(O)CCCN(c1cc(C)c(Nc2nc3ccccc3s2)nn1)c1nc(C(=O)O)c(CCCOc2ccc(C#CCN(C)C)cc2F)s1` (stereo not shown) [Example 169, 2-[[6-(1,3-Benzothiazol-2-ylamino)-5-methyl-pyridazin-3-yl]-[4-hydroxy-5-[methyl-[2-(methylamino)ethyl]amino]pentyl]amino]-5-[3-[4-[3-(dimethylamino)prop-1-ynyl]-2-fluoro-phenoxy]propyl]thiazole-4-carboxylic acid] were under 1 nM, 4.4 pM, 0.0099 nM, 73.1 nM and 106 nM.
In the case of `CCN(CC)CCNCC(O)CCCN(c1cc(C)c(Nc2nc3ccccc3s2)nn1)c1nc(C(=O)O)c(CCCOc2ccc(C#CCN(C)C)cc2F)s1` (stereo not shown) [Example 170, 2-[[6-(1,3-Benzothiazol-2-ylamino)-5-methyl-pyridazin-3-yl]-[5-[2-(diethylamino)ethylamino]-4-hydroxy-pentyl]amino]-5-[3-[4-[3-(dimethylamino)prop-1-ynyl]-2-fluoro-phenoxy]propyl]thiazole-4-carboxylic acid], the values for the inhibition constant (Ki) on BCLXL [1] and at Bcl-xL protein were under 1 nM and 5 pM, respectively. The figures for the IC50 at BCLXL [2], with H146 cells and in the assay with MOLT-4 cells were 0.014 nM, 156 nM and 154 nM, respectively.
Regarding `Cc1cc(N(CCCC(O)CN2CCC(N)CC2)c2nc(C(=O)O)c(CCCOc3ccc(C#CCN(C)C)cc3F)s2)nnc1Nc1nc2ccccc2s1` (stereo not shown) [Example 171, 2-[[5-(4-Amino-1-piperidyl)-4-hydroxy-pentyl]-[6-(1,3-benzothiazol-2-ylamino)-5-methyl-pyridazin-3-yl]amino]-5-[3-[4-[3-(dimethylamino)prop-1-ynyl]-2-fluoro-phenoxy]propyl]thiazole-4-carboxylic acid], the inhibitory constant (Ki) on BCLXL [1] was under 1 nM; on Bcl-xL protein, 3.5 pM. Besides, the IC50 came out at 0.013 nM at BCLXL [2], 110 nM in the assay on H146 cells and 411 nM in the assay with MOLT-4 cells.
Regarding `Cc1cc(N(CCCC(O)CN2CCNCC2)c2nc(C(=O)O)c(CCCOc3ccc(C#CCN(C)C)cc3F)s2)nnc1Nc1nc2ccccc2s1` (stereo not shown) [Example 172, 2-[[6-(1,3-Benzothiazol-2-ylamino)-5-methyl-pyridazin-3-yl]-(4-hydroxy-5-piperazin-1-yl-pentyl)amino]-5-[3-[4-[3-(dimethylamino)prop-1-ynyl]-2-fluoro-phenoxy]propyl]thiazole-4-carboxylic acid], the inhibition constant Ki on BCLXL [1] is under 1 nM; at Bcl-xL protein, 2.6 pM. In addition, the concentration for half-maximal inhibition (IC50) amounted to 0.0078 nM on BCLXL [2], 40.2 nM with H146 cells and 160 nM in the assay on MOLT-4 cells.

One may read the Ki as the dissociation constant of the complex between target and ligand, obtained from inhibition or displacement. In general, IC50 refers to the concentration that inhibits the measured activity by half.

For the origin of these results see patent publication US12649733B2, “3,6-diamino-pyridazin-3-yl derivatives, pharmaceutical compositions containing them and their uses as pro-apoptotic agents” (LES LABORATOIRES SERVIER, priority 2019, dated 2026).
